pIC50: −log10 of the molar value. Counter-ions that a name gives are not always drawn.
What was measured:
[1] = biological target: T1, 5HT1A receptor (Rattus norvegicus, UniProt P19327); assay: In-Vitro inhibition of 5HT1A receptor binding (3H-8-OH-DPAT); design: species or system rat (male Wistar); details: 3H-8-OH-DPAT 1 nM, rat frontal cortex and hippocampus, 37° C., 10 min
T1 sequence (P19327 1-422): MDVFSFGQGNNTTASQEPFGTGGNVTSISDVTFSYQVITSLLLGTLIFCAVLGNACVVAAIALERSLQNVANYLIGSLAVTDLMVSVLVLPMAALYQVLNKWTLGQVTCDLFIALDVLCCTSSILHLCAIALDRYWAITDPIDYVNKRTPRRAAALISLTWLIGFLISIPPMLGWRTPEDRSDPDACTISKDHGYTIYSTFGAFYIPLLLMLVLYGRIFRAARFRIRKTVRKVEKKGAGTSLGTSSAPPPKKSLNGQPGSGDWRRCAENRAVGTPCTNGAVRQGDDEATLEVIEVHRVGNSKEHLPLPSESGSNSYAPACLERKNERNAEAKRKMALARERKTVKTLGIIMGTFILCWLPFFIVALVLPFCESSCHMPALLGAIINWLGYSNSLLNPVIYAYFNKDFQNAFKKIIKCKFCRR
Procedure: In-Vitro inhibition of 5HT1A receptor binding
(§1) Radioactive-labelled ligand ^3 H-80H-DPAT is incubated with isolated cell-membrane fragments at 37° C. for a given period of time. Following completed incubation, the incubate is filtered through GF/F filters which are rinsed after filtration to remove unspecifically adhered radioactivity. As opposed to low-molecular compounds, membrane fragments are not rinsed through the filters, the radioactivity bound to the filters indicates the amount of ligand bound specifically as well as nonspecifically to the membranes.
Male Wistar rats, 150-200 g are decapitated, and frontal cortex (approx. 200 mg) and hippocampus (approx. 70 mg) homogenized in 2×10 ml ice-cold DPAT buffer for 20 sec. applying polytron kinematica setting 6. Centrifuged at 20,000 rpm for 10 min. at 4° C. The pellet is transferred to 2×10 ml ice-cold DPAT buffer, homogenized for 20 sec. and preincubated for 10 min. at 37° C. Centrifuged at 20,000 rpm for 10 min. at 4° C. Final pellet added to 125×vol. of same buffer with 10 μM paragylin added (ex. 270 mg tissue in 33.75 ml DPAT buffer containing paragylin). Prepared fresh every day. Use within 30 minutes.
1,250 μl tissue 25 μl ^3 H-80H-DPAT (1 nM) 25 μl test substance/H2 O/blind serotonin (10 μM)
Incubation at 37° C. for 10 min.--at 10 sec. intervals. To the tubes is added 10 ml ice-cold 0.9% NaCl. Filtration through GF/F filters (use gloves). This procedure is repeated. Filters are placed in counting vials and 4 ml optiflow added (prepare in fume cupboard, use gloves). Counted at window 0-19 of the beta- counter (Pachard). Note that receptor box and lid are rinsed thoroughly in H2 O after use to avoid contamination. Further the analytical site is cleaned carefully every day.
Dissolved in H2 O, EtOH, MeOH or DMSO and further diluted in H2 O. The DPAT binding will stand concentrations of up to approx. 5% of these solvents without affecting the binding. Most stock solutions are stable at 4° C. Attention should, however, be paid to any precipitation, change in colour etc. Test-substance dilutions are always prepared fresh every day. When weighing out test substances, it is attempted to weigh out approx. 1 mg of substance. Less than 0.8 mg must never be weighed out and only infrequently more than 2 mg (for economy reasons) dependent, however on conc./assay.

[2] = biological target: Dopamine D2 receptor (Rattus norvegicus, UniProt P61169); assay: In-Vitro Inhibition of Dopamine D2 Receptor Binding (3H-Spiroperidol); design: species or system rat (male Wistar); details: 3H-Spiroperidol 0.05 nM, rat striatum, 37° C., 20 min
Procedure: In-Vitro Inhibition of Dopamine D2 Receptor Binding,
as §1, with “H-Spiroperidol” for “H-80H-DPAT”, “GF/B” for “GF/F”, “following” for “after”, “low- molecular” for “low-molecular”, “is indicative of” for “indicates”
The procedure is performed in ice bath. Polytron kinematica is rinsed with milli-Q-H2 O before and after use. Male Wistar rats, 150-200 g are decapitated, striatum is removed quickly and weighed (approx. 50 mg). Striatum is transferred to a centrifuging vial containing 10 ml ice-cold D2 buffer. Homogenization is performed applying polytron kinematica (homogenizer) setting 6 for 20 sec. The homogenizer is rinsed with 10 ml D2 buffer in another centrifuging vial. The 10 ml rinsing buffer is added to the tissue vial. Centrifugation at 18,000 rpm for 10 min. at 4° C. Final pellet is transferred to 1,000×vol. of same buffer. (Ex. 50 mg striatum in 50 ml D2 buffer). Can be stored at 0° C. for at least 4 hours. Note that the tissue must homogeneous (uniform) before use. If not, brief homogenization is performed.
2,500 μl tissue (homogeneous)
25 μl ^3 H-Spiroperidol (0.05 nM)
25 μl test substance/H2 O/blind (Domperidone 0.2 μM)
Incubation for 20 min. at 37° C.-10 min. on ice bath.
10 ml ice-cold 0.9% NaCl is added to the tubes and filtered through GF/B filters (use gloves). This procedure is repeated. The filters are placed in counting vials and 4 ml opti-flour is added (perform in fume cupboard, use gloves). Counting is performed at window 0-19 of the beta-counter (Pachard). Note that receptor box and lid are rinsed thoroughly in H2 O after use to avoid contamination. Further, the analytical site is cleaned carefully every day after use.
Dissolved in H2 O, EtOH, MeOH or DMSO and further diluted in H2 O. The D2 binding will stand concentrations of up to approx. 20% of these solvents without affecting the binding. Most stock solutions are stable at 4° C., attention is, however, paid to any precipitation, change in colour etc. Test-substance dilutions are always made fresh every day. When weighing out test substances, it is attempted to weigh out approx. 1 mg of substance. Less than 0.8 mg must never be weighed out and only infrequently more than 2 mg (for economy reasons), dependent, however, on conc./assay.

Sequence of Dopamine D2 receptor (P61169 whole entry): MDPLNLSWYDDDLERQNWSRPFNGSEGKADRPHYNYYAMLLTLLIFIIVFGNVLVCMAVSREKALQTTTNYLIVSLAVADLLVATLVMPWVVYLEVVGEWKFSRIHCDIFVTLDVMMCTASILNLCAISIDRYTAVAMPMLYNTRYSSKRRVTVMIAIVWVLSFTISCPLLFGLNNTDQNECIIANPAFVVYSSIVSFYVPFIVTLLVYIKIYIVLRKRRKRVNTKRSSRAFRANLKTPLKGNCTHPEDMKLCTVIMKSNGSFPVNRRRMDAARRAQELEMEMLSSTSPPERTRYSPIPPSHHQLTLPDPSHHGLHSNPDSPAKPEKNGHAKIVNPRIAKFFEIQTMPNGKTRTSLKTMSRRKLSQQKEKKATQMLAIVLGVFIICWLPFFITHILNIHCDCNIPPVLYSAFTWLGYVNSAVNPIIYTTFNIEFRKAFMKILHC

Row | SMILES | pIC50 [1] | pIC50 [2]
1 | COc1ccc2cccc(N3CCN(CCCOC(=O)Nc4ccc5c(c4)OCO5)CC3)c2c1 [Example 34, 1-(7-Methoxy-1-naphthyl)-4-[3-(3,4-methylenedioxyphenylcarbamoyloxy)propyl]piperazine, HCl] | 8.80 | 8.37
2 | O=C(Nc1ccc2ncsc2c1)OCCCN1CCN(c2ccc(Cl)cc2)CC1 [Example 19, 4-(4-Chlorophenyl)-1-[3-(6-benzothiazolylcarbamoyloxy)propyl]piperazine, hydrochloride] | < 6.00 | 6.82
3 | COc1cc(NC(=O)OCCCN2CCN(c3ccc(F)cc3)CC2)cc(OC)c1OC [Example 8, 4-(4-Fluorophenyl)-1-[3-(3,4,5-trimethoxyphenylcarbamoyloxy)propyl]piperazine, hydrochloride] | < 6.00 | 6.14
4 | COc1cc(NC(=O)OCCCN2CCN(c3ccccc3Cl)CC2)cc(OC)c1OC.Cl [Example 3, 4-(2-Chlorophenyl)-1-[3-(3,4,5-trimethoxyphenylcarbamoyloxy)propyl]piperazine, hydrochloride] | < 6.52 | 6.92
